Test results: publication PMC5218480 (PLoS ONE, 2017)

Test system: MV-4-11 cells
Assay: Gene expression microarray analysis (Affymetrix PrimeView) and GSEA
Assay type: cell-based, human
Design: RFU PODN (11730768_x_at) / Fold change /veh PODN (11730768_x_at) / RFU LINC00158 (11744669_a_at) / Fold change /veh LINC00158 (11744669_a_at) / RFU DUSP10 (11751237_a_at) / Fold change /veh DUSP10 (11751237_a_at) / RFU ID3 (11757404_x_at) / Fold change /veh ID3 (11757404_x_at) / RFU PLEKHG5 (11737974_s_at) / Fold change /veh PLEKHG5 (11737974_s_at) / RFU LRRC4B (11730491_at) / Fold change /veh LRRC4B (11730491_at) / RFU GIMAP4 (11747438_a_at) / Fold change /veh GIMAP4 (11747438_a_at) / RFU KRT8 (11758183_x_at) / Fold change /veh KRT8 (11758183_x_at) / RFU CNN1 (11734310_a_at) / Fold change /veh CNN1 (11734310_a_at) / RFU VPS37D (11726825_at) / Fold change /veh VPS37D (11726825_at) / RFU C10orf10 (11716522_x_at) / Fold change /veh C10orf10 (11716522_x_at) / RFU KIR2DL2 /// KIR2DL4 /// KIR2DL5A /// KIR2DL5B /// KIR2DS1 /// KIR2DS2 /// KIR2DS3 /// KIR2DS4 /// KIR3DL3 /// KIR3DL3 /// KIR3DS1 (11738374_at) / Fold change /veh KIR2DL2 /// KIR2DL4 /// KIR2DL5A /// KIR2DL5B /// KIR2DS1 /// KIR2DS2 /// KIR2DS3 /// KIR2DS4 /// KIR3DL3 /// KIR3DL3 /// KIR3DS1 (11738374_at) / RFU C1QL1 (11718748_at) / Fold change /veh C1QL1 (11718748_at) / RFU TMPRSS4 (11747572_a_at) / Fold change /veh TMPRSS4 (11747572_a_at) / RFU HAMP (11756126_x_at) / Fold change /veh HAMP (11756126_x_at) / RFU RNFT2 (11725882_a_at) / Fold change /veh RNFT2 (11725882_a_at) / RFU NR4A2 (11747474_a_at) / Fold change /veh NR4A2 (11747474_a_at) / RFU ABCC12 (11746883_a_at) / Fold change /veh ABCC12 (11746883_a_at) / RFU TMEM136 (11760407_x_at) / Fold change /veh TMEM136 (11760407_x_at) / RFU CLDN22 /// WWC2 (11732394_at) / Fold change /veh CLDN22 /// WWC2 (11732394_at) / RFU HLA-DPB1 (11760878_x_at) / Fold change /veh HLA-DPB1 (11760878_x_at) / RFU SPINT1 (11716480_a_at) / Fold change /veh SPINT1 (11716480_a_at) / RFU GAP43 (11754022_s_at) / Fold change /veh GAP43 (11754022_s_at) / RFU A4GNT (11735810_at) / Fold change /veh A4GNT (11735810_at) / RFU PRB3 (11715151_x_at) / Fold change /veh PRB3 (11715151_x_at) / RFU TUBB4B (11761932_at) / Fold change /veh TUBB4B (11761932_at) / RFU CAPN14 (11732068_a_at) / Fold change /veh CAPN14 (11732068_a_at) / RFU TMCC2 (11721928_a_at) / Fold change /veh TMCC2 (11721928_a_at) / RFU IRGQ (11745062_a_at) / Fold change /veh IRGQ (11745062_a_at) / RFU FAM174B (11720279_a_at) / Fold change /veh FAM174B (11720279_a_at) / RFU TMPRSS4 (11748680_a_at) / Fold change /veh TMPRSS4 (11748680_a_at) / RFU FAM212B (11763350_a_at) / Fold change /veh FAM212B (11763350_a_at) / RFU PLEKHG5 (11743358_a_at) / Fold change /veh PLEKHG5 (11743358_a_at) / RFU ZSCAN30 (11745921_a_at) / Fold change /veh ZSCAN30 (11745921_a_at) / RFU CMKLR1 (11741424_a_at) / Fold change /veh CMKLR1 (11741424_a_at) / RFU LOC101060620 /// MAPK8IP1 (11723275_at) / Fold change /veh LOC101060620 /// MAPK8IP1 (11723275_at) / RFU SPTSSB (11747773_x_at) / Fold change /veh SPTSSB (11747773_x_at) / RFU PRSS12 (11739890_at) / Fold change /veh PRSS12 (11739890_at) / RFU BIN1 (11741810_x_at) / Fold change /veh BIN1 (11741810_x_at) / RFU WNT11 (11732464_a_at) / Fold change /veh WNT11 (11732464_a_at) / RFU C10orf10 (11716521_a_at) / Fold change /veh C10orf10 (11716521_a_at) / RFU C5orf56 (11738089_at) / Fold change /veh C5orf56 (11738089_at) / RFU CYB561 (11721691_x_at) / Fold change /veh CYB561 (11721691_x_at) / RFU ANKRD19P (11752326_a_at) / Fold change /veh ANKRD19P (11752326_a_at) / RFU OR2T12 /// OR2T33 /// OR2T8 (11738714_s_at) / Fold change /veh OR2T12 /// OR2T33 /// OR2T8 (11738714_s_at) / RFU VCAN (11748164_a_at) / Fold change /veh VCAN (11748164_a_at) / RFU JSRP1 (11732532_at) / Fold change /veh JSRP1 (11732532_at) / RFU KRTAP10-11 (11738290_x_at) / Fold change /veh KRTAP10-11 (11738290_x_at) / RFU MYO3A (11730013_a_at) / Fold change /veh MYO3A (11730013_a_at) / RFU EBF3 (11725865_a_at) / Fold change /veh EBF3 (11725865_a_at) / RFU CAMK2N1 (11719241_x_at) / Fold change /veh CAMK2N1 (11719241_x_at) / RFU C5orf56 (11738088_a_at) / Fold change /veh C5orf56 (11738088_a_at) / RFU OLFML3 (11715873_a_at) / Fold change /veh OLFML3 (11715873_a_at) / RFU LOC100653217 /// NTM (11731650_a_at) / Fold change /veh LOC100653217 /// NTM (11731650_a_at) / RFU MAPK11 (11762145_a_at) / Fold change /veh MAPK11 (11762145_a_at) / RFU FIZ1 (11724087_x_at) / Fold change /veh FIZ1 (11724087_x_at) / RFU OASL (11726364_x_at) / Fold change /veh OASL (11726364_x_at) / RFU SOX15 (11748057_x_at) / Fold change /veh SOX15 (11748057_x_at) / RFU CD79A (11719716_a_at) / Fold change /veh CD79A (11719716_a_at) / RFU HIST1H1D (11736915_at) / Fold change /veh HIST1H1D (11736915_at) / RFU CASKIN2 (11723855_a_at) / Fold change /veh CASKIN2 (11723855_a_at) / RFU LOC730098 (11760151_x_at) / Fold change /veh LOC730098 (11760151_x_at) / RFU OR4N2 (11742367_at) / Fold change /veh OR4N2 (11742367_at) / RFU PRRT2 (11749266_a_at) / Fold change /veh PRRT2 (11749266_a_at) / RFU SNX32 (11753110_a_at) / Fold change /veh SNX32 (11753110_a_at) / RFU CDHR5 (11726645_a_at) / Fold change /veh CDHR5 (11726645_a_at) / RFU RCAN1 (11760418_a_at) / Fold change /veh RCAN1 (11760418_a_at) / RFU FAM167A (11723789_a_at) / Fold change /veh FAM167A (11723789_a_at) / RFU FAM26E (11764081_at) / Fold change /veh FAM26E (11764081_at) / RFU ISYNA1 (11749810_s_at) / Fold change /veh ISYNA1 (11749810_s_at) / RFU ACY1 (11761880_at) / Fold change /veh ACY1 (11761880_at) / RFU 11764098_at / Fold change /veh 11764098_at / RFU SAMD14 (11745864_x_at) / Fold change /veh SAMD14 (11745864_x_at) / RFU NPB (11741838_a_at) / Fold change /veh NPB (11741838_a_at) / RFU TMPRSS6 (11731388_a_at) / Fold change /veh TMPRSS6 (11731388_a_at) / RFU KRTAP10-2 (11738614_at) / Fold change /veh KRTAP10-2 (11738614_at) / RFU ARHGAP8 /// PRR5-ARHGAP8 (11727945_x_at) / Fold change /veh ARHGAP8 /// PRR5-ARHGAP8 (11727945_x_at) / RFU KRTAP5-7 /// NADSYN1 (11734609_at) / Fold change /veh KRTAP5-7 /// NADSYN1 (11734609_at) / RFU RASL12 (11751679_a_at) / Fold change /veh RASL12 (11751679_a_at) / RFU CDKN2B (11736163_a_at) / Fold change /veh CDKN2B (11736163_a_at) / RFU PRF1 (11729649_at) / Fold change /veh PRF1 (11729649_at) / RFU, ZNF638 /// ZNF638-IT1 / Fold change vs veh, ZNF638 /// ZNF638-IT1 / RFU, PANK3 / Fold change vs veh, PANK3 / RFU, SH3YL1 / Fold change vs veh, SH3YL1 / RFU, ZEB2 / Fold change vs veh, ZEB2 / RFU, NRIP1 / Fold change vs veh, NRIP1 / RFU, PTTG1IP / Fold change vs veh, PTTG1IP / RFU, CAPN2 / Fold change vs veh, CAPN2 / RFU, MED14 / Fold change vs veh, MED14 / RFU, SNORA58 / Fold change vs veh, SNORA58 / RFU, C1orf63 / Fold change vs veh, C1orf63 / RFU, LRRFIP1 / Fold change vs veh, LRRFIP1 / RFU, NDUFAF7 / Fold change vs veh, NDUFAF7 / RFU, SLC12A2 / Fold change vs veh, SLC12A2 / RFU, IBTK / Fold change vs veh, IBTK / RFU, ESF1 / Fold change vs veh, ESF1 / Fold change vs veh, TMEM50B / RFU, TAOK1 / Fold change vs veh, TAOK1 / RFU, ACBD3 / Fold change vs veh, ACBD3 / RFU, TMA16 / Fold change vs veh, TMA16 / RFU, RWDD3 / Fold change vs veh, RWDD3 / RFU, BCAT1 / Fold change vs veh, BCAT1 / RFU, EDEM3 / Fold change vs veh, EDEM3 / RFU, TMEM33 / Fold change vs veh, TMEM33 / RFU, WDR75 / Fold change vs veh, WDR75 / RFU, AHCTF1 / Fold change vs veh, AHCTF1 / RFU, TFRC / Fold change vs veh, TFRC / RFU, ZDHHC17 / Fold change vs veh, ZDHHC17 / RFU, NOM1 / Fold change vs veh, NOM1 / RFU, ARL8B / Fold change vs veh, ARL8B / RFU, ZBTB11 / Fold change vs veh, ZBTB11 / RFU, TAMM41 / Fold change vs veh, TAMM41 / RFU, KIAA1704 /// LOC100996395 / Fold change vs veh, KIAA1704 /// LOC100996395 / RFU, ING1 / Fold change vs veh, ING1 / RFU, TRMT61B / Fold change vs veh, TRMT61B / RFU, FUBP3 / Fold change vs veh, FUBP3 / RFU, TP53 / Fold change vs veh, TP53 / RFU, TNKS2 / Fold change vs veh, TNKS2 / RFU, ZFP14 / Fold change vs veh, ZFP14 / RFU, ACTR2 / Fold change vs veh, ACTR2 / RFU, PPP3R1 / Fold change vs veh, PPP3R1 / RFU, PIK3R1 / Fold change vs veh, PIK3R1 / RFU, HNRNPA1 / Fold change vs veh, HNRNPA1 / RFU, RNF170 / Fold change vs veh, RNF170 / RFU, ZNF28 / Fold change vs veh, ZNF28 / RFU, RNGTT / Fold change vs veh, RNGTT / RFU, OGT / Fold change vs veh, OGT / RFU, BRD1 / Fold change vs veh, BRD1 / RFU, MARS / Fold change vs veh, MARS / RFU, ZNF655 / Fold change vs veh, ZNF655 / RFU, FAHD1 / Fold change vs veh, FAHD1 / RFU, BDP1 / Fold change vs veh, BDP1 / RFU, LRRCC1 / Fold change vs veh, LRRCC1 / RFU, ARID1A / Fold change vs veh, ARID1A / RFU, ZNF146 / Fold change vs veh, ZNF146 / RFU, ZNF330 / Fold change vs veh, ZNF330 / RFU, GPN3 / Fold change vs veh, GPN3 / RFU, C9orf123 / Fold change vs veh, C9orf123 / RFU, N4BP2L2 / Fold change vs veh, N4BP2L2 / RFU, ARFIP1 / Fold change vs veh, ARFIP1 / RFU, FAM179B / Fold change vs veh, FAM179B / RFU, BCL10 / Fold change vs veh, BCL10 / RFU, UHRF1BP1L / Fold change vs veh, UHRF1BP1L / RFU, BET1 / Fold change vs veh, BET1 / RFU, CNOT2 / Fold change vs veh, CNOT2 / RFU, ZNF268 / Fold change vs veh, ZNF268 / Fold change vs veh, ZNF507 / RFU, DGCR2 / Fold change vs veh, DGCR2 / RFU, WDSUB1 / Fold change vs veh, WDSUB1 / Fold change vs veh, HSP90B1 /// MIR3652 / RFU, ADSS / Fold change vs veh, ADSS / RFU, GK / Fold change vs veh, GK / RFU, ZNF148 / Fold change vs veh, ZNF148 / RFU, TAF9 / Fold change vs veh, TAF9 / RFU, SLC1A5 / Fold change vs veh, SLC1A5 / RFU, SLMO2 / Fold change vs veh, SLMO2 / RFU, ABCC4 / Fold change vs veh, ABCC4 / RFU, LOC101060439 /// RAP1B / Fold change vs veh, LOC101060439 /// RAP1B / RFU, RFX7 / Fold change vs veh, RFX7 / RFU, GTPBP10 / Fold change vs veh, GTPBP10 / RFU, CNEP1R1 / Fold change vs veh, CNEP1R1 / RFU, BIVM-ERCC5 /// ERCC5 / Fold change vs veh, BIVM-ERCC5 /// ERCC5 / RFU, ILF3 / Fold change vs veh, ILF3 / RFU 11762660_at / Fold change /veh 11762660_at / RFU VCAN (11757783_s_at) / Fold change /veh VCAN (11757783_s_at) / RFU DDX43 (11728927_at) / Fold change /veh DDX43 (11728927_at) / RFU KRT8 (11758188_x_at) / Fold change /veh KRT8 (11758188_x_at) / RFU NKD1 (11759106_at) / Fold change /veh NKD1 (11759106_at) / RFU SRD5A1 (11742802_a_at) / Fold change /veh SRD5A1 (11742802_a_at) / RFU TPSAB1 /// TPSB2 (11721975_s_at) / Fold change /veh TPSAB1 /// TPSB2 (11721975_s_at) / RFU GSTM3 (11746129_a_at) / Fold change /veh GSTM3 (11746129_a_at) / RFU IL23R (11737362_x_at) / Fold change /veh IL23R (11737362_x_at) / RFU TMEM51 (11727254_a_at) / Fold change /veh TMEM51 (11727254_a_at) / RFU PIWIL2 (11732686_x_at) / Fold change /veh PIWIL2 (11732686_x_at) / RFU ORM1 (11744905_x_at) / Fold change /veh ORM1 (11744905_x_at) / RFU CCDC152 (11743942_at) / Fold change /veh CCDC152 (11743942_at) / RFU ECM1 (11717891_a_at) / Fold change /veh ECM1 (11717891_a_at) / RFU IL23R (11748794_a_at) / Fold change /veh IL23R (11748794_a_at) / RFU TNFAIP8L3 (11732012_x_at) / Fold change /veh TNFAIP8L3 (11732012_x_at) / RFU MBOAT4 (11741988_at) / Fold change /veh MBOAT4 (11741988_at) / RFU 11764193_at / Fold change /veh 11764193_at / RFU TMEM53 (11763286_at) / Fold change /veh TMEM53 (11763286_at) / RFU MAGEB2 (11727129_at) / Fold change /veh MAGEB2 (11727129_at) / RFU TMEM200A (11744735_a_at) / Fold change /veh TMEM200A (11744735_a_at) / RFU CCDC152 (11751479_a_at) / Fold change /veh CCDC152 (11751479_a_at) / RFU FAM211A (11726209_a_at) / Fold change /veh FAM211A (11726209_a_at) / RFU RGS16 (11746705_a_at) / Fold change /veh RGS16 (11746705_a_at) / RFU VCAN (11755009_s_at) / Fold change /veh VCAN (11755009_s_at) / RFU RHOB (11743442_s_at) / Fold change /veh RHOB (11743442_s_at) / RFU RGS16 (11720943_a_at) / Fold change /veh RGS16 (11720943_a_at) / RFU RGS16 (11720944_at) / Fold change /veh RGS16 (11720944_at) / RFU, VPS4B / Fold change vs veh, VPS4B / RFU, CREB1 / Fold change vs veh, CREB1 / RFU, DNAJC13 / Fold change vs veh, DNAJC13 / RFU, GNAQ / Fold change vs veh, GNAQ / RFU, CDK5R1 / Fold change vs veh, CDK5R1 / RFU, ZRANB3 / Fold change vs veh, ZRANB3 / RFU, CUL4A / Fold change vs veh, CUL4A / RFU, CCNY / Fold change vs veh, CCNY / RFU, UFL1 / Fold change vs veh, UFL1 / RFU, COG3 / Fold change vs veh, COG3 / RFU, DIAPH2 / Fold change vs veh, DIAPH2 / RFU, SKA2 / Fold change vs veh, SKA2 / RFU, AFF3 / Fold change vs veh, AFF3 / RFU, LMF1 / Fold change vs veh, LMF1 / RFU, IPO11 / Fold change vs veh, IPO11 / RFU, DFFB / Fold change vs veh, DFFB / RFU, FOXP1 / Fold change vs veh, FOXP1 / RFU, CARD8 / Fold change vs veh, CARD8 / RFU, STRN3 / Fold change vs veh, STRN3 / RFU, ADK / Fold change vs veh, ADK / RFU, RASSF2 / Fold change vs veh, RASSF2 / RFU, WIPF1 / Fold change vs veh, WIPF1 / RFU, LARP1B / Fold change vs veh, LARP1B / RFU, RASA1 / Fold change vs veh, RASA1 / RFU, RB1 / Fold change vs veh, RB1 / RFU, PPFIA1 / Fold change vs veh, PPFIA1 / RFU, MAT2A / Fold change vs veh, MAT2A / RFU, CCT5 / Fold change vs veh, CCT5 / RFU, WDR92 / Fold change vs veh, WDR92 / RFU, CUX1 / Fold change vs veh, CUX1 / RFU, TTC7A / Fold change vs veh, TTC7A / RFU, TMEM135 / Fold change vs veh, TMEM135 / RFU, DEPTOR / Fold change vs veh, DEPTOR / RFU, CPM / Fold change vs veh, CPM / RFU, DNAJB6 / Fold change vs veh, DNAJB6 / RFU, CACNA2D3 / Fold change vs veh, CACNA2D3 / RFU, DTX4 / Fold change vs veh, DTX4 / RFU, TFCP2 / Fold change vs veh, TFCP2 / RFU, GMCL1 /// GMCL1P1 / Fold change vs veh, GMCL1 /// GMCL1P1 / RFU, AEBP2 / Fold change vs veh, AEBP2 / RFU, SNHG1 /// SNORD22 /// SNORD25 /// SNORD26 /// SNORD27 /// SNORD28 /// SNORD29 /// SNORD31 / Fold change vs veh, SNHG1 /// SNORD22 /// SNORD25 /// SNORD26 /// SNORD27 /// SNORD28 /// SNORD29 /// SNORD31 / Fold change (Aza/veh), C12orf56 (ProbeSet 11735607_a_at) / Fold change (ACY-1035/veh), C12orf56 (ProbeSet 11735607_a_at) / Fold change (Aza/veh), FGFR1OP (ProbeSet 11751329_s_at) / Fold change (ACY-1035/veh), FGFR1OP (ProbeSet 11751329_s_at) / Fold change (Aza/veh), VPS36 (ProbeSet 11739960_a_at) / Fold change (ACY-1035/veh), VPS36 (ProbeSet 11739960_a_at) / RFU SYPL1 (11715823_x_at) / Fold change /veh SYPL1 (11715823_x_at) / RFU IGFBP7 (11715501_s_at) / Fold change /veh IGFBP7 (11715501_s_at) / RFU REEP3 (11722064_at) / Fold change /veh REEP3 (11722064_at) / RFU IGLL1 (11728026_x_at) / Fold change /veh IGLL1 (11728026_x_at): dose or concentration left out as unconfirmed
Details: ProbeSet 11758440_s_at; LIST B

## Nc1ncn([C@@H]2O[C@H](CO)[C@@H](O)[C@H]2O)c(=O)n1 [azacitidine]
  Fold change vs veh, RFX7: 0.86
